Consider 1 compound from patent publication US20210252151A1, “METHOD FOR OPTICAL OPENING OF THE BLOOD-BRAIN BARRIER” (BOARD OF REGENTS, THE UNIVERSITY OF TEXAS SYSTEM, priority 2018, published 2021).

This data set relates to BBB of C57BL/6 mice. Put plainly: Delivery of functional molecules to the brain after BBB transient opening. The data set is classed as in vivo, mouse. The settings on record: after TJ-targeting AuNP and ps laser (25 mJ/cm^2, 1 pulse). As to the method:
To measure the penetration of functional molecule, the anti-cancer drug, doxorubicin, and antibody (human IgG) instead of Evans blue dye were inject intravenously. To test endogenous mouse IgG extravasation, the secondary antibody was incubated with mouse brain tissue sections, followed by fluorescent signal detection.

For `COc1cccc2c1C(=O)c1c(O)c3c(c(O)c1C2=O)C[C@@](O)(C(=O)CO)C[C@@H]3O[C@H]1C[C@H](N)[C@H](O)[C@H](C)O1` [Dox, doxorubicin], the “crossing of the BBB (extravasation into brain)” value is listed as “obvious Dox across the BBB”.
